Results as given in the NIST ThermoML archive (doi:10.1007/s10765-006-0033-6).

Experiment: compressibility factor (dimensionless); xn = mol fraction of the nth substance listed
Details: Gas, Other PVT measurement

[N-]=[N+]=O [nitrous oxide] + FCF
Details	compressibility factor
303.23 K, 131 kPa, x1 = 0.2958	0.9882
303.23 K, 133.7 kPa, x1 = 0.3826	0.9887
303.23 K, 194.9 kPa, x1 = 0.2958	0.9827
303.23 K, 199.1 kPa, x1 = 0.3826	0.9838
303.23 K, 213.1 kPa, x1 = 0.7326	0.9893
303.23 K, 235.1 kPa, x1 = 0.6589	0.9847
303.23 K, 289.2 kPa, x1 = 0.2958	0.9746
303.23 K, 295.5 kPa, x1 = 0.3826	0.9761
303.23 K, 316.4 kPa, x1 = 0.7326	0.9819
303.23 K, 349.2 kPa, x1 = 0.6589	0.9776
303.23 K, 356.8 kPa, x1 = 0.448	0.9708
303.23 K, 427.1 kPa, x1 = 0.2958	0.9622
303.23 K, 436.8 kPa, x1 = 0.3826	0.9645
303.23 K, 468.8 kPa, x1 = 0.7326	0.9723
303.23 K, 516.7 kPa, x1 = 0.6589	0.9669
303.23 K, 526.5 kPa, x1 = 0.448	0.9574
303.23 K, 626.7 kPa, x1 = 0.2958	0.9437
303.23 K, 641.7 kPa, x1 = 0.3826	0.947
303.23 K, 691.2 kPa, x1 = 0.7326	0.9582
303.23 K, 760.2 kPa, x1 = 0.6589	0.9509
303.23 K, 771.2 kPa, x1 = 0.448	0.9375
303.23 K, 910.7 kPa, x1 = 0.2958	0.9166
303.23 K, 933.9 kPa, x1 = 0.3826	0.9213
303.23 K, 1012.1 kPa, x1 = 0.7326	0.9378
303.23 K, 1108.8 kPa, x1 = 0.6589	0.927
303.23 K, 1117.6 kPa, x1 = 0.448	0.9081
303.23 K, 1303.4 kPa, x1 = 0.2958	0.8768
303.23 K, 1340.2 kPa, x1 = 0.3826	0.8837
303.23 K, 1465.6 kPa, x1 = 0.7326	0.9077
303.23 K, 1593.4 kPa, x1 = 0.448	0.8653
303.23 K, 1596.2 kPa, x1 = 0.6589	0.892
303.23 K, 1822 kPa, x1 = 0.2958	0.8193
303.23 K, 1881.5 kPa, x1 = 0.3826	0.8292
303.23 K, 2086.1 kPa, x1 = 0.7326	0.8636
303.23 K, 2214.2 kPa, x1 = 0.448	0.8037
303.23 K, 2252 kPa, x1 = 0.6589	0.8412
303.23 K, 2454.7 kPa, x1 = 0.2958	0.7378
303.23 K, 2551.4 kPa, x1 = 0.3826	0.7516
303.23 K, 2892.7 kPa, x1 = 0.7326	0.8004
303.23 K, 2954.5 kPa, x1 = 0.448	0.7169
303.23 K, 3079.5 kPa, x1 = 0.6589	0.7688
303.23 K, 3848.9 kPa, x1 = 0.7326	0.7119
303.23 K, 4005.3 kPa, x1 = 0.6589	0.6684
323.44 K, 159 kPa, x1 = 0.5714	0.9902
323.44 K, 237 kPa, x1 = 0.5714	0.9864
323.44 K, 254.6 kPa, x1 = 0.745	0.9868
323.44 K, 352.4 kPa, x1 = 0.5714	0.9806
323.44 K, 378.8 kPa, x1 = 0.745	0.9812
323.44 K, 522.4 kPa, x1 = 0.5714	0.9714
323.44 K, 561.8 kPa, x1 = 0.745	0.9727
323.44 K, 770.4 kPa, x1 = 0.5714	0.9577
323.44 K, 829.3 kPa, x1 = 0.745	0.9598
323.44 K, 1128 kPa, x1 = 0.5714	0.9372
323.44 K, 1215.8 kPa, x1 = 0.745	0.9406
323.44 K, 1633.3 kPa, x1 = 0.5714	0.9071
323.44 K, 1764.2 kPa, x1 = 0.745	0.9123
323.44 K, 2325.6 kPa, x1 = 0.5714	0.8633
323.44 K, 2519.5 kPa, x1 = 0.745	0.8708
323.44 K, 3228.5 kPa, x1 = 0.5714	0.8011
323.44 K, 3513.7 kPa, x1 = 0.745	0.8117
323.44 K, 4726.6 kPa, x1 = 0.745	0.7299
323.45 K, 119.4 kPa, x1 = 0.4108	0.9909
323.45 K, 128.6 kPa, x1 = 0.3236	0.9894
323.45 K, 141.9 kPa, x1 = 0.2465	0.9883
323.45 K, 178 kPa, x1 = 0.4108	0.9879
323.45 K, 191.7 kPa, x1 = 0.3236	0.986
323.45 K, 211.5 kPa, x1 = 0.2465	0.984
323.45 K, 265 kPa, x1 = 0.4108	0.9831
323.45 K, 285.1 kPa, x1 = 0.3236	0.9802
323.45 K, 314.1 kPa, x1 = 0.2465	0.9771
323.45 K, 393.4 kPa, x1 = 0.4108	0.9754
323.45 K, 422.8 kPa, x1 = 0.3236	0.9714
323.45 K, 464.8 kPa, x1 = 0.2465	0.9664
323.45 K, 581.5 kPa, x1 = 0.4108	0.9636
323.45 K, 623.6 kPa, x1 = 0.3236	0.9578
323.45 K, 683.5 kPa, x1 = 0.2465	0.9499
323.45 K, 854.1 kPa, x1 = 0.4108	0.946
323.45 K, 912.9 kPa, x1 = 0.3236	0.9372
323.45 K, 996.3 kPa, x1 = 0.2465	0.9254
323.45 K, 1242.3 kPa, x1 = 0.4108	0.9198
323.45 K, 1321.6 kPa, x1 = 0.3236	0.9069
323.45 K, 1433.4 kPa, x1 = 0.2465	0.8899
323.45 K, 1781.4 kPa, x1 = 0.4108	0.8816
323.45 K, 1881.4 kPa, x1 = 0.3236	0.8629
323.45 K, 2021.2 kPa, x1 = 0.2465	0.8388
323.45 K, 2499.7 kPa, x1 = 0.4108	0.8269
323.45 K, 2610.3 kPa, x1 = 0.3236	0.8003
343.77 K, 139.1 kPa, x1 = 0.2266	0.9898
343.77 K, 195.1 kPa, x1 = 0.4666	0.989
343.77 K, 207.5 kPa, x1 = 0.2266	0.9867
343.77 K, 226.8 kPa, x1 = 0.7567	0.9899
343.77 K, 290.7 kPa, x1 = 0.4666	0.985
343.77 K, 308.8 kPa, x1 = 0.2266	0.9814
343.77 K, 338.1 kPa, x1 = 0.7567	0.9863
343.77 K, 432.2 kPa, x1 = 0.4666	0.9788
343.77 K, 458 kPa, x1 = 0.2266	0.973
343.77 K, 502.9 kPa, x1 = 0.7567	0.9804
343.77 K, 640.2 kPa, x1 = 0.4666	0.9692
343.77 K, 676.2 kPa, x1 = 0.2266	0.9601
343.77 K, 745.4 kPa, x1 = 0.7567	0.9714
343.77 K, 943.3 kPa, x1 = 0.4666	0.9546
343.77 K, 991.2 kPa, x1 = 0.2266	0.9407
343.77 K, 1099.4 kPa, x1 = 0.7567	0.9577
343.77 K, 1379.1 kPa, x1 = 0.4666	0.9328
343.77 K, 1438.1 kPa, x1 = 0.2266	0.9123
343.77 K, 1609.7 kPa, x1 = 0.7567	0.9372
343.77 K, 1992.6 kPa, x1 = 0.4666	0.9008
343.77 K, 2053.8 kPa, x1 = 0.2266	0.8708
343.77 K, 2331.4 kPa, x1 = 0.7567	0.9073
343.77 K, 2828.1 kPa, x1 = 0.4666	0.8546
343.77 K, 2865.7 kPa, x1 = 0.2266	0.8122
343.77 K, 3321.8 kPa, x1 = 0.7567	0.8641
343.77 K, 3911.6 kPa, x1 = 0.4666	0.7901
343.77 K, 4620.1 kPa, x1 = 0.7567	0.8033
343.78 K, 138.3 kPa, x1 = 0.3594	0.9911
343.78 K, 187.9 kPa, x1 = 0.5908	0.9906
343.78 K, 206.4 kPa, x1 = 0.3594	0.9884
343.78 K, 280.1 kPa, x1 = 0.5908	0.9872
343.78 K, 307.3 kPa, x1 = 0.3594	0.9836
343.78 K, 416.8 kPa, x1 = 0.5908	0.9817
343.78 K, 456.2 kPa, x1 = 0.3594	0.9762
343.78 K, 618.2 kPa, x1 = 0.5908	0.9733
343.78 K, 674.7 kPa, x1 = 0.3594	0.9649
343.78 K, 912.7 kPa, x1 = 0.5908	0.9605
343.78 K, 991.4 kPa, x1 = 0.3594	0.9477
343.78 K, 1338.5 kPa, x1 = 0.5908	0.9415
343.78 K, 1443.8 kPa, x1 = 0.3594	0.9225
343.78 K, 1942.8 kPa, x1 = 0.5908	0.9134
343.78 K, 2073.7 kPa, x1 = 0.3594	0.8857
343.78 K, 2776.8 kPa, x1 = 0.5908	0.8726
343.78 K, 2917.9 kPa, x1 = 0.3594	0.833
343.78 K, 3879.6 kPa, x1 = 0.5908	0.8149
364.35 K, 199.4 kPa, x1 = 0.5606	0.9913
364.35 K, 297.5 kPa, x1 = 0.5606	0.9887
364.35 K, 443 kPa, x1 = 0.5606	0.9839
364.35 K, 657.8 kPa, x1 = 0.5606	0.9766
364.35 K, 972.8 kPa, x1 = 0.5606	0.9653
364.35 K, 1430 kPa, x1 = 0.5606	0.9485
364.35 K, 2083.5 kPa, x1 = 0.5606	0.9237
364.35 K, 2996.2 kPa, x1 = 0.5606	0.8879
364.35 K, 4225.6 kPa, x1 = 0.5606	0.837
364.36 K, 114.2 kPa, x1 = 0.2563	0.9933
364.36 K, 134.6 kPa, x1 = 0.33	0.9913
364.36 K, 170.5 kPa, x1 = 0.2563	0.9913
364.36 K, 197 kPa, x1 = 0.4559	0.9909
364.36 K, 200.9 kPa, x1 = 0.33	0.9892
364.36 K, 250.5 kPa, x1 = 0.7632	0.9908
364.36 K, 254.2 kPa, x1 = 0.2563	0.9878
364.36 K, 294 kPa, x1 = 0.4559	0.9885
364.36 K, 299.7 kPa, x1 = 0.33	0.9864
364.36 K, 373.5 kPa, x1 = 0.7632	0.9875
364.36 K, 378.2 kPa, x1 = 0.2563	0.9825
364.36 K, 437.3 kPa, x1 = 0.4559	0.9828
364.36 K, 445.6 kPa, x1 = 0.33	0.9802
364.36 K, 556.1 kPa, x1 = 0.7632	0.9827
364.36 K, 561.2 kPa, x1 = 0.2563	0.9743
364.36 K, 649 kPa, x1 = 0.4559	0.9748
364.36 K, 660.6 kPa, x1 = 0.33	0.9712
364.36 K, 824.6 kPa, x1 = 0.7632	0.974
364.36 K, 828.8 kPa, x1 = 0.2563	0.9619
364.36 K, 959 kPa, x1 = 0.4559	0.9628
364.36 K, 974.3 kPa, x1 = 0.33	0.9575
364.36 K, 1216 kPa, x1 = 0.2563	0.9432
364.36 K, 1218.7 kPa, x1 = 0.7632	0.9621
364.36 K, 1408 kPa, x1 = 0.4559	0.9448
364.36 K, 1425.9 kPa, x1 = 0.33	0.9367
364.36 K, 1766.2 kPa, x1 = 0.2563	0.9157
364.36 K, 1788.6 kPa, x1 = 0.7632	0.9438
364.36 K, 2047.8 kPa, x1 = 0.4559	0.9185
364.36 K, 2064.5 kPa, x1 = 0.33	0.9064
364.36 K, 2528.1 kPa, x1 = 0.2563	0.8762
364.36 K, 2598.5 kPa, x1 = 0.7632	0.9166
364.36 K, 2935.9 kPa, x1 = 0.4559	0.8802
364.36 K, 2942.6 kPa, x1 = 0.33	0.8636
364.36 K, 3725.1 kPa, x1 = 0.7632	0.8782
364.36 K, 4122.8 kPa, x1 = 0.4559	0.8262
364.36 K, 5229 kPa, x1 = 0.7632	0.824
